Test results: US11725027B2, “Hypersensitive response elicitor-derived peptides and use thereof” (priority 2016, dated 2023)
Marks after values point to notes of the source that are not given here.

Experiments:
Assay type in all cases: in vivo
[1] = test system: Nicotiana tabacum cultivar xanthi plants; experiment: Hypersensitive Response (HR) induction in tobacco leaves; parameters: key to HR: Plants are considered HR-positive (“HR+”) if they exhibit wide-spread macroscopic cell death visible to the naked eye, accompanied by wilting and browning of the affected tissue within 48 hours; Plants are considered HR-negative (“HR−”) if they exhibit no discernible wilting or tissue death observable by naked eye; conditions: for HR: tobacco leaf infused with 500, 250, 125, 62.5, 31.25 μg/ml peptide solutions, scored over 48 hours; for elicitation of HR, effect of Met to Ala mutations: tobacco
Text: A property of a peptide to elicit a hypersensitive response, or not, upon infiltration or application of the peptide to plant tissues can be measured by applying the peptide in dry powder form or in solution form to a plant, particularly though not exclusively a plant leaf.
The minimal eliciting sequence derived from was developed based on the sequence of the hrex gene from Xanthomonas campestris pv. pelargonii. A number of truncated and mutated sequences were synthesized and tested for Hypersensitive Response induction (results in Table 4). HR in tobacco was tested as described in Wei, Science 257:85-88 (1992), which is hereby incorporated by reference in its entirety. Briefly, peptides were dissolved at a concentration of 500 μg/ml in aqueous solution. Four serial dilutions were performed with an equal volume of water, yielding peptide samples at 500, 250, 125, 62.5, 31.25 μg/ml peptide solutions. Nicotiana tabacum cultivar xanthi plants were used at 5-7 weeks old (preflowering). Leaves were lightly punctured with a toothpick in a middle leaf panel. Peptide solutions were then infused via needle-less syringe into the wound, filling the panel. Each peptide sample was infused into a leaf of 2 different plants. The leaves were observed and scored over the next 48 hours for withering and browning, lesions typical of programmed cell death. These studies had […] main goals: (1) determine the minimal sequence sufficient for HR elicitation (2) increase the solution stability of the peptides; (3) make disruptive mutations to verify the residues which are most important for HR elicitation; (4) make conservative mutations to identify the degree of specificity for particular amino acids.

[2] = test system: tobacco mosaic virus (TMV); experiment: Induction of resistance to tobacco mosaic virus in tobacco; conditions: % decline in TMV lesions vs UTC, spray 20 ug/ml; for Effectiveness Covered (%): covered leaf (systemic response); for Effectiveness Uncovered (%): uncovered leaf (local response)
Method: Peptides were tested for the induction of resistance to tobacco mosaic virus (TMV) in tobacco. Briefly, three tobacco plants at 6-8 weeks old were selected per group (samples and controls). The bottom-most leaf of the plant was covered and the plant was sprayed with a solution of water (untreated control—UTC), peptide, or Proact (positive control). The spray was applied until the leaves were fully wetted, indicated by liquid dripping from the leaves. The plants were then allowed to dry and the leaf covering was removed.
Three days post-treatment, the previously-covered leaf and a leaf on the opposite side of the plant were then lightly dusted with diatomaceous earth and 20 ul of a 1.7 ug/ml solution of purified tobacco mosaic virus was applied. The TMV solution was then spread across the leaf surface by lightly rubbing solution and the diatomaceous earth across the surface of the leaves. Two minutes after inoculation, the diatomaceous earth was rinsed off the leaves with water. 3 days after TMV inoculation, the leaves were scored based on the number of TMV lesions observed. The leaf was also scored for signs of the hypersensitive response, including yellowing and wilting of the affected leaves.
Effectiveness described in Table 6 refers to the % decline in TMV lesions on treated vs UTC plants. A reduction of TMV on covered leaves indicates a systemic immune response in the plant while reduction on uncovered leaves indicates a local response. Asterisks indicate that the P-value derived from a T-test was <0.05.

[3] = test system: soy; experiment: Drought resistance in soy (greenhouse, spray); conditions: soy under cyclic drought
Method: The effectiveness of peptide treatment in reducing drought stress was assessed in soy. 3.5 inch pots were filled with Sunshine #1 soil (SunGro Horticulture), fertilized with a 20-10-20 mixture. The soil was soaked and drained overnight. Seeds (soy, manually inspected to ensure uniform seed size) were planted at a depth of half inch for germination. Plants were grown in a greenhouse under 16 hour light days at >70° F. and 8 hour dark nights at >65° F. Prior to drought conditions, the plants were well-watered.
When the plants reached the growth stage when first trifoliate expanded, plants were culled to achieve a uniform height (abnormally large and small plants were removed). Plants were then randomly assigned to control (spray without peptide) or treatment (spray with peptide) groups and heights were measured. Peptide was made up in a solution of 0.2 ug/ml or 2 ug/ml in distilled water+0.04% Tween-20, and applied as a fine mist from a spray bottle until the solution drips from the leaves. After the peptide solutions were dried, the plants were again randomized in a randomized complete block design. Cyclic drought stress was initiated after the peptide treatment. Plants were subjected to at least three drought cycles of drought stress (3-5 days of withholding water and 1 day irrigated with saturating amount of water) before harvesting.
The drought test phase ended after 2-3 weeks. At that time, the plant height was again measured and the growth rate was calculated as the difference between this and the previously-recorded height. The above-ground part portions of the plants were harvested and weighed to obtain fresh weight. The above-ground portion was also dried in an oven at 70° C. for 72 hours to obtain dry weight. All calculations were compared with matched untreated control plants.

Sequence | HR [1] | further results
SAGSEQQEDQLLLMFIMMMLQQ [Peptide P5-53] | - | 
ITPDGQGGGQIGDNPQLDLLLAFIAAALQQ [Peptide P5-80] | Weak+ | 
SAGSEQQLELLLAFIAAALQQ [Peptide P5-4] | + | Effectiveness Covered (%) [2]: 98* %; Effectiveness Uncovered (%) [2]: 97* %
SQAGSEQLDLLLMFIMMMLQQ [Peptide P5-73] | + | 
SAGSEQQLDLLLAFIAAALQQ [Peptide P5-3] | + | elicitation of HR, effect of Met to Ala mutations [1]: do not affect the elicitation of HR; Effectiveness Covered (%) [2]: 70* %; Effectiveness Uncovered (%) [2]: 55%
SEEQLEELLAFIAAALQQEE [Peptide P5-57] | + | 
SEEELELLLAFIAAALEEEE [Peptide P5-22] | + | Effectiveness Covered (%) [2]: 62%; Effectiveness Uncovered (%) [2]: 82%
SEEEEELDQLLLAFIAAAL [Peptide P5-24] | - | 
AEQGSSQLDLLLMFIMMMLQQ [Peptide P5-74] | + | 
SAGSEQQLDELLAFIALQQ [Peptide P5-62] | - | 
SELELLLAFIAAALEEEEE [Peptide P5-19] | + | 
SAGSEQQLDQLLLAFIAAALQQ [Peptide P5-55] | - | 
NQGISEKQQLDLLLMFIMMMLQQ [Peptide P5-75] | Strong+ | Dry Weight Increase (%) ([3]; 0.2 ug/ml): 3.73%; Fresh Weight Increase (%) ([3]; 0.2 ug/ml): 8.78** %; Dry Weight Increase (%) ([3]; 2.0 ug/ml): 4.37%; Fresh Weight Increase (%) ([3]; 2.0 ug/ml): 8.55** %
SEEQLDLLLMFIMMMLQQEE [Peptide P5-47] | + | Effectiveness Covered (%) [2]: 78* %; Effectiveness Uncovered (%) [2]: 87* %
SAGSEQQLDLLLMFIAAALQQ [Peptide P5-2] | + | elicitation of HR, effect of Met to Ala mutations [1]: do not affect the elicitation of HR; Effectiveness Covered (%) [2]: 90* %; Effectiveness Uncovered (%) [2]: 25%
SEEQLDQLLLAFIAAALEE [Peptide P5-28] | Weak+ | 
ITPDGQGGGQIGDNPQLDLLLMFIMMMLQQ [Peptide P5-79] | Strong+ | 
SAGSEQQLDQELLMFIMMMLQQ [Peptide P5-54] | - | 
SEEELDLLLAFIAAALEE [Peptide P5-11] | - | 
SEEEEELDQLLLAFIAAALQQ [Peptide P5-23] | Weak+ | 
LDLLLAFIEEELEEEE [Peptide P5-10] | - | 
SAGSEQQLDLLLMFIEMMLQQ [Peptide P5-42] | Weak+ | 
SAGSEQQLDLLLAEIALQQ [Peptide P5-64] | - | 
SEEEQLDQLLLMFIMMMLQEE [Peptide P5-34] | + | 

Sequence | HR [1] | further results
SEEEEELDLLLAFIAAALQ [Peptide P5-15] | - | 
SEEEQLDLLLMFIMMMLQEE [Peptide P5-33] | + | Dry Weight Increase (%) ([3]; 2.0 ug/ml): 5.02** %; Fresh Weight Increase (%) ([3]; 2.0 ug/ml): 4.10%
SAGSEQQLDLLLMFIMMMEQQ [Peptide P5-45] | - | 
SEEQLDLLLAFIAAALQEE [Peptide P5-26] | + | 
SEEELDLLLAFIAAALDD [Peptide P5-13] | - | 
SELELLLEFIEEELEE [Peptide P5-20] | - | 
SEEELDLLLAFIEEELEE [Peptide P5-12] | - | 
SEEEQLDQLLLMFIMMMLEE [Peptide P5-32] | + | 
SEEQLELLLAFIAAALQEE [Peptide P5-88] | + | 
SAGSEQQLDELLAFIAAALQQ [Peptide P5-50] | Weak+ | 
SAGSEQQLDELLAFIAAALQQ [Peptide P5-72] | - | 
SAGSEQQLDLLLMFEMMMLQQ [Peptide P5-41] | - | 
SAGSEQQLDLLLAFIAAELQQ [Peptide P5-68] | - | 
SEEEEELDLLLAFIAAALQQ [Peptide P5-8] | Weak+ | Effectiveness Covered (%) [2]: 99* %; Effectiveness Uncovered (%) [2]: 99* %
SEEQEELLLAFIAAALQQEE [Peptide P5-56] | - | 
SAGSEQQEDLLLAFIALQQ [Peptide P5-61] | - | 
SEEQEEELLAFIAAALQQEE [Peptide P5-58] | - | 
SAGSEQQLDELLMFIMMMLQQ [Peptide P5-36] | + | 
SAGSEQQLDLLLEFIALQQ [Peptide P5-63] | - | 
SAGSEQQEDELLMFIMMMLQQ [Peptide P5-52] | - | 
SEEEEELDLLLAFIAAALS [Peptide P5-16] | - | 
SAGSEQQLDLLLAFIEALQQ [Peptide P5-65] | - | 
SAGSEQQLDLELMFIMMMLQQ [Peptide P5-37] | - | 
SEEQLDLLLEFIEEELQQEE [Peptide P5-48] | - | 

Sequence | HR [1] | further results
SEEELDLLLMFIMMMLEE [Peptide P5-29] | + | 
SAGSEQQEDELLAFIAAALQQ [Peptide P5-51] | - | 
NFGTPDSTVQNPQDASKPNQLDLLLMFIMMMLQQ [Peptide P5-77] | Weak+ | 
SAGSEQQLDLLLEFIAAALQQ [Peptide P5-70] | - | 
SAGSEQQLDLLLMFIMEMLQQ [Peptide P5-43] | Strong+ | 
SAGSEQQLDLLLEFIMMMLQQ [Peptide P5-39] | Strong+ | 
SEEEEELDLLLAFIAAALGG [Peptide P5-14] | Weak+ | 
SAGSEQQLDLLLAFIEAALQQ [Peptide P5-67] | - | 
SEEQLDLLLAFIAAALQQEE [Peptide P5-87] | - | 
SEEEEELDLLLAFIAAALA [Peptide P5-17] | - | 
SAGSEQQLDLLEMFIMMMLQQ [Peptide P5-38] | - | 
SEEEQLDLLLMFIMMMLEE [Peptide P5-31] | + | 
SEEELDQLLLMFIMMMLEE [Peptide P5-30] | + | 
SEEEEELDLLLAFIAAAL [Peptide P5-7] | - | Effectiveness Covered (%) [2]: 91* %; Effectiveness Uncovered (%) [2]: 71%
NFGTPDSTVQNPQDASKPNQLDLLLAFIAAALQQ [Peptide P5-78] | Weak+ | 
SAGSEQQLDLLLMEIMMMLQQ [Peptide P5-40] | Strong+ | 
SAGSEQQLDLLLMFIMMELQQ [Peptide P5-44] | Weak+ | 
SAGSEQQLDQLLLMFIMMMLQQ [Peptide P5a] | + | 
SAGSEQQLDLLLAFIAAAL [Peptide P5-6] | - | Effectiveness Covered (%) [2]: 36%; Effectiveness Uncovered (%) [2]: 62%
SAGSEQQLDLLLAFIAEALQQ [Peptide P5-66] | Weak+ | 
SEEEEELDLLLAFIAAALE [Peptide P5-18] | - | 
SAGSEQQEDLLLAFIAAALQQ [Peptide P5-49] | - | 
SAGSEQQLDLLLAEIAAALQQ [Peptide P5-69] | - | 
